Results from paper PMC3914206.

Assays:
Assay in all cases: KiNativ chemical proteomics profiling in HeLa and PC3 cell lysates
[1] = molecular target: T1, selected panels of kinases in HeLa and PC3 cell lysates (Homo sapiens, UniProt Q9UBS0); assay type: binding; conditions: 10 uM; p70S6Kb; peptide DLk[…]; proteome HEL; labeling site Lys2
T1 construct: endogenous in cells; host or cells: HeLa and PC3 cell lysates

[2] = molecular target: T2, selected panels of kinases in HeLa and PC3 cell lysates (Homo sapiens, UniProt Q00537); assay type: binding; conditions: 10 uM; PCTAIRE2; peptide DLkPQNLLINEK; proteome HEL; labeling site Lys2
T2 construct: endogenous in cells; host or cells: HeLa and PC3 cell lysates

[3] = molecular target: T3, selected panels of kinases in HeLa and PC3 cell lysates (Homo sapiens, UniProt Q9Y4K4); assay type: binding; conditions: 10 uM; proteome PC3; peptide […]kIIK; labeling site Lys1
T3 construct: endogenous in cells; host or cells: HeLa and PC3 cell lysates

[4] = molecular target: T4, selected panels of kinases in HeLa and PC3 cell lysates (Homo sapiens, UniProt Q16584); assay type: binding; conditions: 10 uM, peptide DLk[…], labeling site Lys2
T4 construct: endogenous in cells; host or cells: HeLa and PC3 cell lysates

[5] = molecular target: T5, selected panels of kinases in HeLa and PC3 cell lysates (Homo sapiens, UniProt Q15418); assay type: binding; conditions: 10 uM; RSK1 domain1; peptide LTDFGLSkEAIDHEK; proteome HEL; labeling site Activation Loop
T5 construct: endogenous in cells; host or cells: HeLa and PC3 cell lysates

[6] = molecular target: T6, selected panels of kinases in HeLa and PC3 cell lysates (Homo sapiens, UniProt Q96GX5); assay type: binding; conditions: 10 uM; proteome HEL; peptide LYAVkVVK; labeling site Lys1
T6 construct: endogenous in cells; host or cells: HeLa and PC3 cell lysates

[7] = molecular target: T7, selected panels of kinases in HeLa and PC3 cell lysates (Homo sapiens, UniProt Q16539); assay type: binding; conditions: 10 uM
T7 construct: endogenous in cells; host or cells: HeLa and PC3 cell lysates

[8] = molecular target: T8, selected panels of kinases in HeLa and PC3 cell lysates (Homo sapiens, UniProt Q15375); assay type: binding; conditions: 10 uM; proteome PC3; peptide […]kIPVR; labeling site Activation Loop
T8 construct: endogenous in cells; host or cells: HeLa and PC3 cell lysates

[9] = tested on: selected panels of kinases in HeLa and PC3 cell lysates; assay type: binding, human; conditions: 10 uM; for % Inhibition PI4KA,PI4KAP2: peptide SGTPMQSAAkAPYLAK, labeling site ATP; for % Inhibiton, MAP3K2,MAP3K3: peptide DIkGANILR; for % Inhibiton, IKKe,TBK1: peptide DIkPGNIMR; for % Inhibiton, JNK1,JNK2,JNK3: peptide DLkPSNIVVK; for % Inhibiton, MAP2K1,MAP2K2: peptide DVkPSNILVNSR
[10] = molecular target: T9, selected panels of kinases in HeLa and PC3 cell lysates (Homo sapiens, UniProt Q14012); assay type: binding; conditions: 10 uM; proteome HEL; peptide LVAIkCIAK; labeling site Lys1
T9 construct: endogenous in cells; host or cells: HeLa and PC3 cell lysates

[11] = molecular target: T10, selected panels of kinases in HeLa and PC3 cell lysates (Homo sapiens, UniProt P12931); assay type: binding; conditions: 10 uM; SRC; peptide VAIk[…]; proteome PC3; labeling site Lys1
T10 construct: endogenous in cells; host or cells: HeLa and PC3 cell lysates

[12] = molecular target: T11, selected panels of kinases in HeLa and PC3 cell lysates (Homo sapiens, UniProt Q9UL54); assay type: binding; conditions: 10 uM; TAO2; peptide DVk[…]; proteome PC3; labeling site Lys2
T11 construct: endogenous in cells; host or cells: HeLa and PC3 cell lysates

[13] = molecular target: T12, selected panels of kinases in HeLa and PC3 cell lysates (Homo sapiens, UniProt Q00536); assay type: binding; conditions: 10 uM; PCTAIRE1; peptide LTDNLVALkEIR; proteome PC3; labeling site Lys1
T12 construct: endogenous in cells; host or cells: HeLa and PC3 cell lysates

[14] = molecular target: T13, selected panels of kinases in HeLa and PC3 cell lysates (Homo sapiens, UniProt Q7KZI7); assay type: binding; conditions: 10 uM; proteome PC3; peptide EVAVk[…]; labeling site Lys1
T13 construct: endogenous in cells; host or cells: HeLa and PC3 cell lysates

[15] = molecular target: T14, selected panels of kinases in HeLa and PC3 cell lysates (Homo sapiens, UniProt P52564); assay type: binding; conditions: 10 uM
T14 construct: endogenous in cells; host or cells: HeLa and PC3 cell lysates
T14 sequence (P52564 1-334): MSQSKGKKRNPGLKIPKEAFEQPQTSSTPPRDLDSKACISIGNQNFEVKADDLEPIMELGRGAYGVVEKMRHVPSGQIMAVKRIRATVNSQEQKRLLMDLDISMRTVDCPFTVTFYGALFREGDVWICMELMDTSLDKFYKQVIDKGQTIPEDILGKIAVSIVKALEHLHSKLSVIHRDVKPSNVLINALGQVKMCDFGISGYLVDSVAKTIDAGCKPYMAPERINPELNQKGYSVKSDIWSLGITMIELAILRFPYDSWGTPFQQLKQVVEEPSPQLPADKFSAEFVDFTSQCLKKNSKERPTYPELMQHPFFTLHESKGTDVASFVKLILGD

[16] = molecular target: T15, selected panels of kinases in HeLa and PC3 cell lysates (Homo sapiens, UniProt P19525); assay type: binding; conditions: 10 uM, PKR, peptide DLk[…], labeling site Lys2
T15 construct: endogenous in cells; host or cells: HeLa and PC3 cell lysates

[17] = proteome HEL, peptide DLk[…], labeling site Lys2
[18] = proteome PC3, peptide DLk[…], labeling site Lys2
[19] = peptide DIk[…], proteome HEL, labeling site Lys2
[20] = peptide DIk[…], proteome PC3, labeling site Lys2
[21] = proteome HEL, labeling site Lys2
[22] = proteome HEL, peptide DVk[…], labeling site Lys2
[23] = proteome PC3, labeling site Lys2
[24] = proteome PC3, peptide DIk[…], labeling site Lys2
[25] = proteome PC3, peptide DVk[…], labeling site Lys2

T7 sequence (Q16539 whole entry): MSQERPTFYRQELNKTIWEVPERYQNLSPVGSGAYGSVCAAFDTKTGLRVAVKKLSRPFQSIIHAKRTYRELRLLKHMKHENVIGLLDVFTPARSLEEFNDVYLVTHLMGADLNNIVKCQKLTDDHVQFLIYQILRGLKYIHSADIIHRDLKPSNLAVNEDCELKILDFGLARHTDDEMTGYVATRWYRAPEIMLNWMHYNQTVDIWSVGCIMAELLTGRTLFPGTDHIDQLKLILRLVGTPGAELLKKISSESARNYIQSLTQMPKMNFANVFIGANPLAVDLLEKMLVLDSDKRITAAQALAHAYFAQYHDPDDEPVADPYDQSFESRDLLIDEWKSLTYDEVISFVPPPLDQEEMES
T15 sequence (P19525 whole entry): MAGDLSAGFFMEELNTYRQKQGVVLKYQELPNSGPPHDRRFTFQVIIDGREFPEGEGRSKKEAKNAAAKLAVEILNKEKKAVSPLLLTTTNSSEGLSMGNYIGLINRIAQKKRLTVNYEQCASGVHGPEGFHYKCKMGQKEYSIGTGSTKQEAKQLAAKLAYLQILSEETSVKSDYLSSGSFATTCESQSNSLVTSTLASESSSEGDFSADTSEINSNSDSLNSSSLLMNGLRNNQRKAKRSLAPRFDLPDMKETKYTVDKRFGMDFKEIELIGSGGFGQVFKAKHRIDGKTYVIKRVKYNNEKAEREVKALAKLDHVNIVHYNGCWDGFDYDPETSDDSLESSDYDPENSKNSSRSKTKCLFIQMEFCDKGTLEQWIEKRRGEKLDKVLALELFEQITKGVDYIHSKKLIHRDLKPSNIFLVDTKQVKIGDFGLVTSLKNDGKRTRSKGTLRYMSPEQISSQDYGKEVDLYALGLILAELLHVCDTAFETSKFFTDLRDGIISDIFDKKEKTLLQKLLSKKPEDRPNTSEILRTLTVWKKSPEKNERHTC
T4 sequence (Q16584 whole entry): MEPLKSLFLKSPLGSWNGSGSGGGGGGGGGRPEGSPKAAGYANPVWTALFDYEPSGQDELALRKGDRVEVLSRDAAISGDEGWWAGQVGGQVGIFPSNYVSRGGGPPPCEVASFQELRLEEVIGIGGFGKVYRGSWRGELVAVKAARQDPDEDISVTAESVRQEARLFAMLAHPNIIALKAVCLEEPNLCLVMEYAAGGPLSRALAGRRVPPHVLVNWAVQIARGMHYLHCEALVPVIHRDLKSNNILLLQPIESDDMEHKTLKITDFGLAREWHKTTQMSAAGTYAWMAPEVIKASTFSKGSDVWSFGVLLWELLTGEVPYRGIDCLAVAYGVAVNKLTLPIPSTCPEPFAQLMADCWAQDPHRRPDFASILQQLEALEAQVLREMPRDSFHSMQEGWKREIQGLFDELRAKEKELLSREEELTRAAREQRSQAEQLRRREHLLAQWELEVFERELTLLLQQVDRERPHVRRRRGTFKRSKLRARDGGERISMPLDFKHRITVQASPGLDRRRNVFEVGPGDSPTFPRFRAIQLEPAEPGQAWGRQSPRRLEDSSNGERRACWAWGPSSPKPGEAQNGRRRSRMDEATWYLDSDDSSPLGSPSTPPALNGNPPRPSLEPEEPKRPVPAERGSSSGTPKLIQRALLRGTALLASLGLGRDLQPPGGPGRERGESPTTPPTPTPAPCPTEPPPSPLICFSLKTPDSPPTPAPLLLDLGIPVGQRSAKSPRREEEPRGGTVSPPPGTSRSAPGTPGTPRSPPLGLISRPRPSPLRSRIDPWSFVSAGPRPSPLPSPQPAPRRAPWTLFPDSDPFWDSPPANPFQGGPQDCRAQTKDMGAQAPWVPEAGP
T13 sequence (Q7KZI7 whole entry): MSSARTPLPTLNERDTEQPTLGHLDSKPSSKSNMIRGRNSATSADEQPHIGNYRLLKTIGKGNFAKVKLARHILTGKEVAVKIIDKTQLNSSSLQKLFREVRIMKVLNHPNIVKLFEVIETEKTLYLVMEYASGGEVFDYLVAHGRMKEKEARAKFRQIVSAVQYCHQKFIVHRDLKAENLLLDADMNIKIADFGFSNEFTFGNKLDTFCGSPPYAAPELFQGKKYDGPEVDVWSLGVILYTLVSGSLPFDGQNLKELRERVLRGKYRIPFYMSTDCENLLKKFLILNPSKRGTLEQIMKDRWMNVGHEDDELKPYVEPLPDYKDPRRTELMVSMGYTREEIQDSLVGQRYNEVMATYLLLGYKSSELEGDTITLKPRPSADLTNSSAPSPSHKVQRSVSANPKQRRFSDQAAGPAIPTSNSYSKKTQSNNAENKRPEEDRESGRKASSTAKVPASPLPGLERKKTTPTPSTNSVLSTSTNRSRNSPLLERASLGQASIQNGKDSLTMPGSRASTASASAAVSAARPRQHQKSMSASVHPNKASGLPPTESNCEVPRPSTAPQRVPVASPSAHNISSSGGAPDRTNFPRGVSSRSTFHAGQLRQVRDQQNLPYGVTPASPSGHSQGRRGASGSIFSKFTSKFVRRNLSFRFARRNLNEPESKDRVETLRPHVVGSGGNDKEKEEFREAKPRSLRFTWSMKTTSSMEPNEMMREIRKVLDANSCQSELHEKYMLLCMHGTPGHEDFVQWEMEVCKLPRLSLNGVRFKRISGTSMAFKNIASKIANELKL
T12 sequence (Q00536 whole entry): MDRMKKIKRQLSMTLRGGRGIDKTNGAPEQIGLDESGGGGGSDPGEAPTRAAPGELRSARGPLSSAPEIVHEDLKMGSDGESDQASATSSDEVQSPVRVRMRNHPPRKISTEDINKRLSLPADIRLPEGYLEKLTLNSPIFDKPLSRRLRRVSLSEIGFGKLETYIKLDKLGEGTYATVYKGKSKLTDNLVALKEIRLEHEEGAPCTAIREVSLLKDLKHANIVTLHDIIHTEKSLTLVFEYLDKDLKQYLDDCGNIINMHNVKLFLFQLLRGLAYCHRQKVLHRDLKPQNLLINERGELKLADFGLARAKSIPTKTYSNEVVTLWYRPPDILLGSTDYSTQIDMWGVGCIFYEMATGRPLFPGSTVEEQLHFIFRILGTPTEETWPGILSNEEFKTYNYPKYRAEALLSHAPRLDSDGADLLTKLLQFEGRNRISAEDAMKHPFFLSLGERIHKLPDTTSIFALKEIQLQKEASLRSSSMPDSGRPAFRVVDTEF
T6 sequence (Q96GX5 whole entry): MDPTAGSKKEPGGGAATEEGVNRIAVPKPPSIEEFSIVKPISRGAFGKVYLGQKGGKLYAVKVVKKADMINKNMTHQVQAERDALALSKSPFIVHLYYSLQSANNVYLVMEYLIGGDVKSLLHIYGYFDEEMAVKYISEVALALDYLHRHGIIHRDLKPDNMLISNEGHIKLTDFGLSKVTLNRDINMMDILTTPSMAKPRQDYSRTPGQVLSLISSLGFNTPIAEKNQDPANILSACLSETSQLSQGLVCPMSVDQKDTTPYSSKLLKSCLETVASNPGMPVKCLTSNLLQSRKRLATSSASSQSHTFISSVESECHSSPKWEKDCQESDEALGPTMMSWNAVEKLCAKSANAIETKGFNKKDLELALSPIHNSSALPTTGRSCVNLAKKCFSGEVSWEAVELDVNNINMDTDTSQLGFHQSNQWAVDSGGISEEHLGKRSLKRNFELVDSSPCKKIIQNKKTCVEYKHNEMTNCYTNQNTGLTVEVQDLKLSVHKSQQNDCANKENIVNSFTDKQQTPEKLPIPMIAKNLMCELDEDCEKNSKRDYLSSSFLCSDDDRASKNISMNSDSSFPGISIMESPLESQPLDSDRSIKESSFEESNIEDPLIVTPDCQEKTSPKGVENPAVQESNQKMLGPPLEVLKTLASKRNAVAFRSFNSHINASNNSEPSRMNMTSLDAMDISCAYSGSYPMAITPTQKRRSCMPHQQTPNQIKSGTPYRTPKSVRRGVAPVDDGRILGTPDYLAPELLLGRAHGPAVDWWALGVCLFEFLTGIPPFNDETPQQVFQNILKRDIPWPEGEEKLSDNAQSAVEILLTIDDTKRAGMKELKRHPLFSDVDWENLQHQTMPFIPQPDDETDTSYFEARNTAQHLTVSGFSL
T2 sequence (Q00537 whole entry): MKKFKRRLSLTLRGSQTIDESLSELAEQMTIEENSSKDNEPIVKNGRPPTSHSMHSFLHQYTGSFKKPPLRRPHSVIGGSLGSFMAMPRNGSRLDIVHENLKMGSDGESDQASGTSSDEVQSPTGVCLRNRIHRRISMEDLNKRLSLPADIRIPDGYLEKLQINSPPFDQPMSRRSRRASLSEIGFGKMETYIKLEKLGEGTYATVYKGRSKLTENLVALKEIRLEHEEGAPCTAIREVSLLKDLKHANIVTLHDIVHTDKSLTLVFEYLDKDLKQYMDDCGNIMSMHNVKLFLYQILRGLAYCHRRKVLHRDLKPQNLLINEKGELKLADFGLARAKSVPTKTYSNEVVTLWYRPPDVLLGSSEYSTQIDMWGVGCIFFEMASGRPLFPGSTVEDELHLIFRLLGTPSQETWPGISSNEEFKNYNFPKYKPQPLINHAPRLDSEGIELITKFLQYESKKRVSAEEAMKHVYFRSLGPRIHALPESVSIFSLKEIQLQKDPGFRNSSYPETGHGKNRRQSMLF
T1 sequence (Q9UBS0 whole entry): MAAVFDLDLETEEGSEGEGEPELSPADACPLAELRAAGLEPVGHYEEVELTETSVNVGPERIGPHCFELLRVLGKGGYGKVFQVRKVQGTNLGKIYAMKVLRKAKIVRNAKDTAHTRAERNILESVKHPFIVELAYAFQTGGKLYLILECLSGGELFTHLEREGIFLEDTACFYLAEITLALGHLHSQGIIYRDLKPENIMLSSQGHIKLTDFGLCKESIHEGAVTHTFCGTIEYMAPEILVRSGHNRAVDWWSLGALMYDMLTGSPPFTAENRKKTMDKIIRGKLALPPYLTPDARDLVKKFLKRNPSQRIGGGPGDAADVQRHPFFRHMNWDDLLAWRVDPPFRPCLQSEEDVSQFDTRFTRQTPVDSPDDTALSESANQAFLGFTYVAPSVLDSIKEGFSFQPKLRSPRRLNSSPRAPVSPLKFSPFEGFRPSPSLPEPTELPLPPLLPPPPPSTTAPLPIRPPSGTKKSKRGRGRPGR

## CCOc1cc(C(=O)N2CCC(N3CCN(C)CC3)CC2)ccc1Nc1ncc2c(n1)N(C1CCCC1)c1ccccc1C(=O)N2C [Compound 26]
[1]
  % Inhibition p70S6Kb: -21.4%
[2]
  % Inhibition PCTAIRE2: 1.4%
[3]
  % Inhibiton, KHS1: -7.1%
[4]; proteome HEL
  % Inhibiton, MLK3: -12.1%
[4]; proteome PC3
  % Inhibiton, MLK3: 11.9%
[5]
  % Inhibition RSK1 domain1: 5.6%
[6]
  % Inhibiton, MASTL: 5.9%
[7]; [17]
  % Inhibiton, p38a: -7.3%
[7]; proteome HEL, peptide QELNkTIWEVPER, labeling site Other
  % Inhibiton, p38a: 55%
[7]; [18]
  % Inhibiton, p38a: 4.6%
[7]; proteome PC3, peptide QELNkTIWEVPER, labeling site Other
  % Inhibiton, p38a: -19%
[8]
  % Inhibiton, EphA7: 8.5%
[9]; proteome HEL
  % Inhibition PI4KA,PI4KAP2: -4.3%
[9]; proteome PC3
  % Inhibition PI4KA,PI4KAP2: -19.2%
[9]; PKCa,PKCb, peptide DLk[…], proteome PC3, labeling site Lys2
  % Inhibition PKCa,PKCb: -2.9%
[9]; PKD1,PKD2, peptide NIVHCDLk[…], proteome HEL, labeling site Lys2
  % Inhibition PKD1,PKD2: 16.4%
[9]; ROCK1,ROCK2, peptide DVkPDNMLLDK, proteome PC3, labeling site Lys2
  % Inhibition ROCK1,ROCK2: -4.8%
[9]; RSK1,RSK2 domain1, peptide DLk[…], proteome HEL, labeling site Lys2
  % Inhibition RSK1,RSK2 domain1: 13.4%
[9]; RSK1,RSK4 domain1, peptide VLGQGSFGkVFLVR, proteome HEL, labeling site ATP Loop
  % Inhibition RSK1,RSK4 domain1: 0.4%
[9]; SRPK1,SRPK2, peptide FVAMkVVK, proteome PC3, labeling site Lys1
  % Inhibition SRPK1,SRPK2: -3.7%
[9]; [19]
  % Inhibition TAO1,TAO3: -15.8%
  % Inhibition ZC1/HGK,ZC2/TNIK,ZC3/MINK: -1.1%
[9]; [20]
  % Inhibition TAO1,TAO3: 1.7%
  % Inhibition ZC1/HGK,ZC2/TNIK,ZC3/MINK: -12.1%
[9]; Wnk1,Wnk2,Wnk3, peptide DLk[…], proteome HEL, labeling site Lys2
  % Inhibition Wnk1,Wnk2,Wnk3: 1.8%
[9]; Wnk1,Wnk2,Wnk4, peptide IGDLGLATLkR, proteome PC3, labeling site Activation Loop
  % Inhibition Wnk1,Wnk2,Wnk4: -6.2%
[9]; p70S6K,p70S6Kb, peptide GGYGkVFQVR, proteome PC3, labeling site ATP Loop
  % Inhibition p70S6K,p70S6Kb: -1%
[9]; [21]
  % Inhibiton, MAP3K2,MAP3K3: -4.4%
  % Inhibiton, IKKe,TBK1: -55%
  % Inhibiton, JNK1,JNK2,JNK3: 14%
  % Inhibiton, MAP2K1,MAP2K2: 17.5%
[9]; proteome HEL, peptide DIk[…], labeling site Lys2
  % Inhibiton, NEK6,NEK7: 6.4%
[9]; [17]
  % Inhibiton, AMPKa1,AMPKa2: -22.8%
  % Inhibiton, MARK2,MARK3: -16.8%
  % Inhibiton, MAST2,MAST4: -23.7%
  % Inhibiton, p38d,p38g: -11.7%
[9]; [22]
  % Inhibiton, MYO3A,MYO3B: 11.5%
[9]; proteome HEL, peptide GQYDVAIkMIK, labeling site Lys1
  % Inhibiton, BMX,BTK: -22.5%
[9]; proteome HEL, peptide IAIkEIPERDSR, labeling site Lys1
  % Inhibiton, MAP3K5,MAP3K6,MAP3K7: 2%
[9]; proteome HEL, peptide SkNVFYDNGK, labeling site Protein Kinase Domain
  % Inhibiton, KSR1,KSR2: 12.3%
[9]; proteome HEL, peptide VAVkILNR, labeling site Lys1
  % Inhibiton, AMPKa1,AMPKa2: 6%
[9]; proteome HEL, peptide VLGTGAYGkVFLVR, labeling site ATP Loop
  % Inhibiton, MSK1,MSK2 domain1: 7.4%
[9]; proteome HEL, peptide […]kFPIK, labeling site Activation Loop
  % Inhibiton, ABL,ARG: -6.4%
[9]; [23]
  % Inhibiton, MAP3K2,MAP3K3: 5.5%
  % Inhibiton, IKKe,TBK1: -4.6%
  % Inhibiton, JNK1,JNK2,JNK3: 12.2%
  % Inhibiton, MAP2K1,MAP2K2: 7.9%
[9]; [24]
  % Inhibiton, MST1,MST2: -5.4%
  % Inhibiton, MST4,YSK1: 0.5%
  % Inhibiton, NEK6,NEK7: -4.6%
[9]; proteome PC3, peptide DLkPENLLLASK, labeling site Lys2
  % Inhibiton, CaMK2a,CaMK2b,CaMK2d,CaMK2g: -3.7%
[9]; [18]
  % Inhibiton, AMPKa1,AMPKa2: 12.1%
  % Inhibiton, CDK11,CDK8: 7.9%
  % Inhibiton, MARK2,MARK3: 3.7%
  % Inhibiton, p38d,p38g: 8.3%
[9]; [25]
  % Inhibiton, CK1d,CK1e: 13%
[9]; proteome PC3, peptide EVAIkIIDK, labeling site Lys1
  % Inhibiton, MARK3,MARK4: 0.6%
[9]; proteome PC3, peptide QGAk[…], labeling site Activation Loop
  % Inhibiton, FYN,SRC,YES: 5.5%
[9]; proteome PC3, peptide VAVkILNR, labeling site Lys1
  % Inhibiton, AMPKa1,AMPKa2: 6.9%
[10]
  % Inhibiton, CaMK1a: 36%
[11]
  % Inhibition SRC: 13.8%
[12]
  % Inhibition TAO2: 7.2%
[13]
  % Inhibition PCTAIRE1: -26.9%
[14]
  % Inhibiton, MARK2: 16.8%
[15]; [22]
  % Inhibiton, MAP2K6: -4.3%
[15]; [25]
  % Inhibiton, MAP2K6: -9.9%
[15]; proteome PC3, peptide […]kR, labeling site Lys1
  % Inhibiton, MAP2K6: -2.3%
[16]; proteome HEL
  % Inhibition PKR: -0.3%
[16]; proteome PC3
  % Inhibition PKR: -3.3%
